Laboratory results as given in patent US6750349B2, “Gastrokinetic monocyclic benzamides of 3-or 4-substituted 4-(aminoethyl)-piperidine derivatives” (Janssen Pharmaceutics, N.V., priority 1997, dated 2004).

Tested on: conscious dogs
Assay: Gastric emptying of an acaloric liquid test meal delayed by administration of lidamidine, in conscious dogs
Format: in vivo, beagle dogs
Conditions: conscious dog; for ΔT/T^b (acceleration of gastric emptying of a liquid meal delayed by lidamidine): dose of 0.0025 mg/kg; for ΔT/T^a (acceleration of gastric emptying of a liquid meal delayed by lidamidine): dose of 0.01 mg/kg
Source text: C.1. Gastric Emptying of an Acaloric Liquid Test Meal Delayed by Administration of Lidamidine, in Conscious Dogs
Female beagle dogs, weighing 7-14 kg, were trained to stand quietly in Pavlov frames. They were implanted with a gastric cannula under general anesthesia and aseptic precautions. After a median laparatomy, an incision was made through the gastric wall in the longitudinal direction between the greater and the lesser curve, 2 cm above the nerves of Latarjet. The cannula was secured to the gastric wall by means of a double purse string suture and brought out via a stab wound at the left quadrant of the hypochondrium. Dogs were allowed a recovery period of at least two weeks. Experiments were started after a fasting period of 24 hours, during which water was available ad libitum. At the beginning of the experiment, the cannula was opened in order to remove any gastric juice or food remnants.
The stomach was cleansed with 40 to 50 ml lukewarm water. The test compound was administered I.V. (in a volume≦3 ml via the vena cephalica), S. C. (in a volume≦3 ml) or P. O. (in a volume of 1 ml/kg body weight, applied intragastrically via the cannula with a device that filled the lumen of the cannula; after injection of the test compound, 5 ml NaCl 0.9% was injected in order to correct for the dead space in the injection system). Immediately after administration of the test compound or its solvent, lidamidine 0.63 mg/kg was administered subcutaneously. 30 min later, the cannula was opened to determine the amount of fluid present in the stomach, promptly followed by reintroduction of the fluid. Then the test meal was administered via the cannula. This test meal consisted of 250 ml distilled water containing glucose (5 g/l) as a marker. The cannula remained closed for 30 min, whereafter the gastric contents were drained from the stomach to measure total volume (t=30 min). For later analysis 1 ml of the gastric contents was taken, promptly followed by reintroduction of the rest volume into the stomach. This sequence was repeated 4 times with 30 min intervals (t=60, 90, 120, 150 min).
In the 1 ml samples of the gastric contents, the glucose concentrations were measured on a Hitachi 717 automatic analyzer by the hexokinase method (Schmidt, 1961).
Curves were fitted to the measurement points (glucose versus time) using weighed non-linear regression analysis. Gastric emptying was quantified as the time needed to empty 70% of the meal (t70%). The control emptying time was calculated as the mean t70% of the last 5 solvent experiments of the same dog. Acceleration of delayed gastric emptying (Δt) was calculated as the time difference between t70% compound and t70% solvent. To correct for variations in emptying rate between dogs, Δt was expressed as % of t70% solvent (Schuurkes et al, 1992)).

[1] = compounds, Δt = t70% compound minus t70% solvent, relative to t70% solvent

Structure (SMILES): COCCCN1CC[C@@H](CNC(=O)c2cc(Cl)c(N)c(OC)c2OC)[C@H](O)C1 (racemic) [Compound 11, (±)-trans-4-amino-5-chloro-N-[[3-hydroxy-1-(3-methoxypropyl)-4-piperidinyl]methyl]-2,3-dimethoxybenzamide]
- ΔT/T^b (acceleration of gastric emptying of a liquid meal delayed by lidamidine) [1]: −0.62
- ΔT/T^a (acceleration of gastric emptying of a liquid meal delayed by lidamidine) [1]: −0.59

Structure (SMILES): CCCCN1CC[C@@H](CNC(=O)c2cc(Cl)c(N)c(OC)c2OC)[C@H](O)C1.O (racemic) [Compound 9, (±)-trans-4-amino-N-[(1-butyl-3-hydroxy-4-piperidinyl)methyl] -5-chloro-2,3-dimethoxybenzamide monohydrate]
- ΔT/T^b (acceleration of gastric emptying of a liquid meal delayed by lidamidine) [1]: −0.29
- ΔT/T^a (acceleration of gastric emptying of a liquid meal delayed by lidamidine) [1]: −0.55
- ΔT/T^b (acceleration of gastric emptying of a liquid meal delayed by lidamidine) (intermediates): −0.40
- ΔT/T^a (acceleration of gastric emptying of a liquid meal delayed by lidamidine) (intermediates): −0.31

Structure (SMILES): COc1c(C(=O)NC[C@@H]2CCN(CCCC(C)=O)C[C@H]2O)cc(Cl)c(N)c1OC.O (racemic) [Compound 14, (±)-trans-4-amino-5-chloro-N-[[3-hydroxy-1-(4-oxopentyl)-4-piperidinyl]methyl]-2,3-dimethoxybenzamide monohydrate]
- ΔT/T^b (acceleration of gastric emptying of a liquid meal delayed by lidamidine) [1]: −0.52
- ΔT/T^a (acceleration of gastric emptying of a liquid meal delayed by lidamidine) [1]: −0.67
